Common to all, as to assay type: in vivo
One assay deals with corn (Zea mays). Briefly: Test A greenhouse herbicide test, pre- and postemergence. As to conditions: Postemergence. An outline of the steps: (§1)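 Seeds sown in loam–sand blend got a preemergence directed soil spray of compound in non-phytotoxic solvent with surfactant. Postemergence treatment was given at 2–10 cm, one- to two-leaf stage. After ~10 d in greenhouse, injury was rated visually vs untreated controls, 0 (no effect) to 100 (complete control).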

Assay [1] relates to ryegrass, Italian (Italian ryegrass, Lolium multiflorum). The assay is described as above. Particulars: for pest or weed control at 125 g/ha / pest or weed control at 500 g/ha: Lolium multiflorum, 240 h. An outline of the steps: as §1
The subject of assay [2] is foxtail, giant (giant foxtail, Setaria faberii). Described as above. Particulars: for pest or weed control at 125 g/ha / pest or weed control at 500 g/ha: Setaria faberi, 240 h. An outline of the steps: as §1
Assay [3] deals with pigweed (Amaranthus retroflexus). Described as above. Particulars: for pest or weed control at 125 g/ha / pest or weed control at 500 g/ha: Amaranthus retroflexus, 240 h. An outline of the steps: as §1
Assay [4] relates to ragweed (common ragweed, Ambrosia elatior). The description is as above. Particulars: for pest or weed control at 125 g/ha / pest or weed control at 500 g/ha: Ambrosia artemisiifolia, 240 h. An outline of the steps:
as §1

Assay [5] has as its system wheat (Triticum aestivum). Described as above. As to conditions: Postemergence. In outline:
as §1

The test system of another assay is rice (Oryza sativa). Briefly: Test B flooded paddy test. As to conditions: 250 g ai/ha, Flood, visual rating on scale of 0 to 100 where 0 is no effect and 100 is complete control, 13 to 15 d after treatment. An outline of the steps:
(§2)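 Plants at the 2-leaf stage were flooded to 3 cm above soil, and test compounds were applied directly into the paddy water, which was held at that depth throughout. After 13 to 15 d in a greenhouse, injury was rated visually against untreated controls on a 0–100 scale (0 no effect, 100 complete control).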

For assay [6], the system named is barnyardgrass (Echinochloa crus-galli). Briefly: Test B flooded paddy test. Particulars: 250 g ai/ha, Flood, visual rating on scale of 0 to 100 where 0 is no effect and 100 is complete control, 13 to 15 d after treatment. An outline of the steps: as §2
Assay [7] deals with ducksalad (Heteranthera limosa). Briefly: Test B flooded paddy test. Particulars: 250 g ai/ha, Flood, visual rating on scale of 0 to 100 where 0 is no effect and 100 is complete control, 13 to 15 d after treatment. In outline: as §2
Assay [8] relates to sedge, umbrella (small-flower umbrella sedge, Cyperus difformis). The experiment in a line: Test B flooded paddy test. Particulars: 250 g ai/ha, Flood, visual rating on scale of 0 to 100 where 0 is no effect and 100 is complete control, 13 to 15 d after treatment. An outline of the steps: as §2
Where [9] appears, read: 125 g ai/ha, 0 to 100 scale, 0 no effect, 100 complete control.
The mark [10] stands for this setting: 500 g ai/ha, visual rating after approx. 10 d, 0 to 100 scale (0 no effect, 100 complete control).
Where [11] appears, read: Postemergence, 125 g ai/ha, 0 to 100 scale, 0 no effect, 100 complete control.
Setting [12] is: Postemergence, 500 g ai/ha, visual rating after approx. 10 d, 0 to 100 scale (0 no effect, 100 complete control).
Setting [13] is: Preemergence, 125 g ai/ha, visual injury rating, 0 to 100 scale (0 no effect, 100 complete control), approx. 10 d.
Setting [14] is: Preemergence, 500 g ai/ha, 0 to 100 scale where 0 is no effect and 100 is complete control.

Like-named read-outs stand apart in the source and are kept apart here.

`Cc1nn(C)c(=O)c(-c2c([N+](=O)[O-])ccc3ccccc23)c1O` [Compound 165]: the “Plant response rating, Corn” value in the assay on corn (Zea mays) (setting [9]) stood at 0; in the assay on corn (Zea mays) (setting [10]), 20. Further, the “Plant response rating, Ryegrass, Italian” value in assay [1] (setting [11]) stood at 80; in [1] (setting [12]), 90; in assay [1] (setting [13]), 40; in assay [1] (setting [14]) it was 100. In addition, the “Plant response rating, Foxtail, Giant” value in assay [2] (setting [11]) worked out at 20; in assay [2] (setting [12]) it was 50; in assay [2] (setting [13]), 10; in assay [2] (setting [14]), 40. The “Plant response rating, Pigweed” value in [3] (setting [11]) was determined as 80; in assay [3] (setting [12]), 80; in [3] (setting [13]), 100; in assay [3] (setting [14]), 90. For the same compound, the “Plant response rating, Ragweed” value worked out at 90 in assay [4] (setting [11]), 90 in assay [4] (setting [12]), 50 in assay [4] (setting [13]) and 90 in assay [4] (setting [14]). For the same compound, the “Plant response rating, Wheat” value in assay [5] (setting [9]) and in [5] (setting [10]) was 0 in each case. In the assay with rice (Oryza sativa), the “Plant response rating, Rice” value amounted to 0. Moreover, the “Plant response rating, Barnyardgrass” value in assay [6] is 0. Also, the “Plant response rating, Ducksalad” value in [7] was 0. Further, the “Plant response rating, Sedge, Umbrella” value in [8] worked out at 0.
In the assay on corn (Zea mays) (Zea mays, post-emergence, 240 h, 125 g ai/ha, visual rating after approx. 10 d, 0 to 100 scale (0 no effect, 100 complete control)), `Cc1cc(C)c2oc(C)c(-c3c(OC(=O)C(C)(C)C)c(C)nn(C)c3=O)c2c1` [Compound 18, 1,6-dihydro-1,3-dimethyl-6-oxo-5-(2,5,7-trimethyl-3-benzofuranyl)-4-pyridazinyl 2,2-dimethylpropanoate] showed a Corn plant response rating (crop injury, 0 = no effect, 100 = complete kill) at 125 g/ha of 0%. Further, the plant injury at 500 g/ha in the assay on corn (Zea mays) (Zea mays, post-emergence, 240 h, 500 g ai/ha, 0 to 100 scale, 0 is no effect, 100 is complete control, read-out: Corn plant response rating) came to 20%; in assay [5] (Triticum aestivum, post-emergence, 240 h, 500 g ai/ha, 0 to 100 scale, 0 is no effect, 100 is complete control, read-out: Wheat plant response rating), 0%. Besides, the pest or weed control at 125 g/ha is 10% in assay [1] (post-emergence, Postemergence, 125 g ai/ha, visual rating after approx. 10 d, 0 to 100 scale (0 no effect, 100 complete control), read-out: Plant response rating, Ryegrass, Italian); 0% in assay [1] (pre-emergence, Preemergence, 125 g ai/ha, 0 to 100 scale where 0 is no effect and 100 is complete control, read-out: Ryegrass, Italian plant response rating); 0% in [2] (post-emergence, Postemergence, 125 g ai/ha, visual rating after approx. 10 d, 0 to 100 scale (0 no effect, 100 complete control), read-out: Plant response rating, Foxtail, Giant); 0% in assay [2] (pre-emergence, Preemergence, 125 g ai/ha, 0 to 100 scale where 0 is no effect and 100 is complete control, read-out: Foxtail, Giant plant response rating); 0% in assay [3] (post-emergence, Postemergence, 125 g ai/ha, visual rating after approx. 10 d, 0 to 100 scale (0 no effect, 100 complete control), read-out: Plant response rating, Pigweed); 0% in assay [3] (pre-emergence, Preemergence, 125 g ai/ha, 0 to 100 scale where 0 is no effect and 100 is complete control, read-out: Pigweed plant response rating). The pest or weed control at 125 g/ha in [4] (post-emergence, Postemergence, 125 g ai/ha, visual rating after approx. 10 d, 0 to 100 scale (0 no effect, 100 complete control), read-out: Plant response rating, Ragweed) worked out at 0%; in assay [4] (pre-emergence, Preemergence, 125 g ai/ha, 0 to 100 scale where 0 is no effect and 100 is complete control, read-out: Ragweed plant response rating), 0%. Further, the pest or weed control at 500 g/ha in [1] (post-emergence, Postemergence, 500 g ai/ha, 0 to 100 scale, 0 is no effect, 100 is complete control, read-out: Ryegrass, Italian plant response rating) was 50%; in assay [1] (pre-emergence, Preemergence, 500 g ai/ha, 0 to 100 scale, 0 no effect, 100 complete control, read-out: Plant response rating, Ryegrass, Italian) it was 20%; in assay [2] (post-emergence, Postemergence, 500 g ai/ha, 0 to 100 scale, 0 is no effect, 100 is complete control, read-out: Foxtail, Giant plant response rating) it was 20%; in [2] (pre-emergence, Preemergence, 500 g ai/ha, 0 to 100 scale, 0 no effect, 100 complete control, read-out: Plant response rating, Foxtail, Giant), 0%; in assay [3] (post-emergence, Postemergence, 500 g ai/ha, 0 to 100 scale, 0 is no effect, 100 is complete control, read-out: Pigweed plant response rating), 0%; in assay [3] (pre-emergence, Preemergence, 500 g ai/ha, 0 to 100 scale, 0 no effect, 100 complete control, read-out: Plant response rating, Pigweed), 0%. Further, the pest or weed control at 500 g/ha stood at 0% in assay [4] (post-emergence, Postemergence, 500 g ai/ha, 0 to 100 scale, 0 is no effect, 100 is complete control, read-out: Ragweed plant response rating) and 0% in [4] (pre-emergence, Preemergence, 500 g ai/ha, 0 to 100 scale, 0 no effect, 100 complete control, read-out: Plant response rating, Ragweed). Moreover, the plant injury at 125 g/ha in [5] (Triticum aestivum, post-emergence, 240 h, 125 g ai/ha, visual rating after approx. 10 d, 0 to 100 scale (0 no effect, 100 complete control), read-out: Plant response rating, Wheat) is 0%. In addition, in the assay with rice (Oryza sativa) (Oryza sativa, 360 h, read-out: Plant response rating, Rice), the plant injury at 250 g/ha turned out to be 0%. Further, the pest or weed control at 250 g/ha was determined as 0% in assay [6] (Echinochloa crus-galli, 360 h, read-out: Plant response rating, Barnyardgrass); 30% in assay [7] (Heteranthera limosa, 360 h, read-out: Plant response rating, Ducksalad); 0% in assay [8] (Cyperus difformis, 360 h, read-out: Plant response rating, Sedge, Umbrella).
